Here are results for one compound from US11767330B2, “Citrate salt, pharmaceutical compositions, and methods of making and using the same” (Foghorn Therapeutics Inc., priority 2021, dated 2023).

Structures are written as SMILES.

Series [1] in a line: Tolerability by % body weight change (Example 11). The format is in vivo. The settings on record: 1 mg/kg, i.p., daily, 3 weeks. Here is the method: (§1) Method: NOD SCID mice (Beijing Anikeeper Biotech, Beijing) were inoculated subcutaneously on the right flank with the single cell suspension of SYO-1 human biphasic synovial sarcoma tumor cells (5×106) in 100 μL Dulbecco's Modified Eagle Medium (DMEM) with 10% fetal bovine serum (FBS). The mice were randomized into either control group [10% dimethyl sulfoxide (DMSO), 40% polyethylene glycol (PEG400) and 50% water], or treatment group D1 when the mean tumor size reached about 117 mm^3. Mice were dosed daily through intraperitoneal (i.p.) route over the course of 3 weeks. All dose volumes were adjusted by body weights in terms of mg/kg.

For series [2], the system named is SYO-1 human biphasic synovial sarcoma tumor cells. In words: SYO-1 xenograft tumor growth (Example 11). The class given is in vivo. The settings on record: 1 mg/kg, i.p., daily, 3 weeks, NOD SCID mice. Here is the method: as §1

For the compound `COc1cc(-c2cn(C)c(=O)c3cnc(N4CCC4)cc23)cc(OC)c1CN1CCC(CN2CCC3(CC2)CN(c2ccc4c(c2)C(=O)N(C2CCC(=O)NC2=O)C4)C3)CC1` (racemic) [Compound D1, 3-[6-(7-[[1-([4-[6-(azetidin-1-yl)-2-methyl-1-oxo-2,7-naphthyridin-4-yl]-2,6-dimethoxyphenyl]methyl)piperidin-4-yl]methyl]-2,7-diazaspiro[3.5]nonan-2-yl)-1-oxo-3H-isoindol-2-yl]piperidine-2,6-dione], the “tolerability based on % body weight change” value in series [1] was “well tolerated”. Besides, the tumor growth result in series [2] is “tumor growth inhibition”.
